Results on 13 molecules are retold here after publication PMC11511111, “Scoliidines: Neuroprotective Peptides in Solitary Scoliid Wasp Venoms” (Toxins, 2024).

The subject of one series is PC12 cells. The series can be described thus: PC12 cytotoxicity (crystal violet cell viability). In kind it is cell-based. Conditions: result in words. How it is done:
Figure 2 Cytotoxic effects of γ-, δ- and ε-scoliidines on PC12 viability. The cells were exposed to peptides at different concentrations and times. The control and DMSO groups correspond to cells that have not been treated and cells that have been treated with a 5% concentration of DMSO, respectively. […] Statistical analysis was conducted using a one-way analysis of variance (ANOVA), followed by Dunnett’s post-test. The statistical difference when compared to the control group (p < 0.05) was indicated by asterisks.
(§1) All chemicals used here were analytical reagent grade (purity higher than 95%) purchased from different brands. The AChE enzyme was derived from Electrophorus electricus Type VI-S, and the ACE I enzyme was derived from rabbit lung and was acquired from Sigma-Aldrich Corporation (St. Louis, MO, USA). Neprilysin and the substrates [Abz-FRK (Dnp) P-OH and Abz-RGFK (Dnp)-OH] were supplied by Prof. Adriana Carmona from the Department of Biophysics at Federal University of São Paulo (SP, Brazil). PC12 cell (American Type Culture Collection ® CRL-1721™; Manassas, VA, USA) was used in the present study. Cells were routinely cultured in DMEM medium (Sigma-Aldrich Corporation; St. Louis, MO, USA), according to a previous study.
The cytotoxicity assay was performed using the staining of attached cells with crystal violet dye, according to the literature. Briefly, PC12 cells (5 × 10^3 cells per well; 96-well plates) were treated with different concentrations and times. Untreated cells or treated with DMSO (5%; v·v^−1) were included as controls. We measured the absorbance of dye solubilized in methanol at 570 nm using a microplate reader (BioTek Instruments, Inc., Winooski, VT, USA). We collected data from three distinct examinations, each performed three times, showing the percentage of cell viability relative to the control.
All results are shown as mean ± SD from three separate experiments (n = 3) in triplicate. One-way analysis of variance (ANOVA) was used for between-group comparisons, and Dunnett’s post-hoc test was used for multiple comparisons. Statistical significance was defined as p < 0.05. The analyses were done using GraphPad Prism 6.0 (GraphPad Software, Inc., La Jolla, CA, USA).

Series [1] has as its system PC12 neuronal cells. Description: PC12 mitochondrial metabolism (MTT reduction) / neuroprotection against H2O2-induced oxidative stress. The series is classed as cell-based. To be noted: H2O2 0.5 mmol·L^−1, 20 h, percent compared to control group, oxidative stress model. Here is the method:
PC12 cells were pre-treated with γ-, δ- or ε-scoliidines for 4 h and then exposed to γ-, δ- or ε-scoliidines containing H2O2 for an additional 20 h, providing a protective model (Figure 3A). Cells subjected to a 20-h exposure to H2O2 represent an oxidative stress model.
Figure 3 Neuroprotective property of γ-, δ- and ε-scoliidines on mitochondrial metabolism of the PC12 cell line against H2O2-induced oxidative stress. (A) The experiment involved treating cells (5 × 10^3 cells per well in a 96-well plate) with γ, δ, and ε scoliidines (1 μmol·L^−1) for 4 h at 37 °C. After that, the medium was changed with a solution containing peptide (1 μmol·L^−1) and H2O2 (0.5 mmol·L^−1), and the cells were incubated for an additional 20 h. (B) Protective effects of peptides against neurotoxicity caused by oxidative stress. […]
PC12 cells (5 × 10^3 cells per well) seeded in a 96-well plate (Nest Biotechnology, Rahway, NJ, USA) were used to study the neuroprotective effects of peptides against H2O2-induced oxidative stress, according to a previous study. […] The mitochondrial metabolism was analyzed by 3-(4,5-dimethylthiazol-2-yl)-2,5-diphenyltetrazolium bromide (MTT; 0.5 mg·mL^−1 for 3 h of incubation at 37 °C) reduction assay. The absorbance of the MTT formazan dissolved in 100% DMSO was measured at a wavelength of 540 nm using a spectrophotometer (BioTek Instruments, Inc., Winooski, VT, USA). […]

In series [2] the test system is acetylcholinesterase (AChE). Description: Acetylcholinesterase (AChE) activity, Ellman's method. To be noted: compared to control (100 ± 1.6%), mean ± SD. The series is classed as biochemical, Electrophorus electricus.
From the text: Figure 4 Effects of γ-, δ- and ε-scoliidines on the function of acetylcholinesterase (AChE). The AChE activity was quantified as a percentage of hydrolyzed acetylthiocholine iodine substrate compared to the control (C; blank box). The data obtained from three separate experiments, each performed three times, is presented as mean ± SD.
as §1
The inhibition of AChE activity was determined spectrophotometrically based on Ellman’s method, as previously reported. We calculated AChE activity as the hydrolyzed acetylthiocholine iodide substrate concentration as a percentage of control.
All results are shown as mean ± SD from three separate experiments (n = 3) in triplicate. […]

Series [3] concerns PC12 neuronal cells. To be noted: result in words, ref [25]; cited from earlier work. The source says:
(§2) In recent years, our investigation has focused on scoliid wasp venoms. Scoliid wasps hunt and sting beetle larvae under the ground. Comprehensive LC-MS and MS/MS analysis of the venom extract from Scolia decorata ventralis identified two major peptide components named α- and β-scoliidine. […] This is the first case of solitary wasp venom peptides showing neuroprotective activity. Similarly, venom components of Campsomeriella annulata annulata were in ...

The subject of a further series is human neprilysin (NEP). The series can be described thus: Peptide stability / cleavage by neprilysin. In kind it is in vitro ADME. Conditions: relative hydrolysis ratio; peptide 30 µmol·L^−1, NEP 7.5 ng, 37 °C, 4 h.
From the text: as §1
(§3) The stability tests of peptides (30 µmol·L^−^1) were tested after incubation separately with ACE and NEP (7.5 ng) at 37 °C for 4 h, according to previous reports.

For series [4], the system named is angiotensin-converting enzyme (ACE). The series can be described thus: Peptide stability / cleavage by angiotensin-converting enzyme. In kind it is in vitro ADME, rabbit. Conditions: relative hydrolysis ratio; peptide 30 µmol·L^−1, ACE 7.5 ng, 37 °C, 4 h.
From the text: as §1, §3

In a further series the test system is neuronal PC12 cells. Conditions: result in words, ref [26]; cited from earlier work.
From the text: as §2

For series [5], the system named is acetylcholine (ACh) receptors of insect central nervous system. To be noted: result in words; insects' central nervous system; ref [18],[19],[20]; cited from earlier work. An excerpt: Scoliid wasp venoms were the first solitary wasp venoms to be studied between the years 1987 and 1990, and the presence of bradykinin-related peptides was reported. […] Since the f ...

The mark [6] stands for this setting: all concentrations and times assessed, 570 nm.

Where no end group is shown, it is not given here.

As for `C[S+](C)[O-]` [DMSO, reference compound], the “cell viability with DMSO” value in the series on PC12 cells (DMSO 5% (v·v^−1)) is given as “decrease in cell viability”. With `OO` [H2O2], in the series with PC12 neuronal cells [1], the “mitochondrial metabolism of PC12 cells treated only with H2O2” value was found to be 75.8 ± 2.4%. In the case of `CCOP(=O)(OCC)OP(=O)(OCC)OCC` [TEPP, tetraethyl pyrophosphate], in series [2], the “AChE activity with positive control” value is on record as 27.8 ± 6.5%. For the molecule DYVTVKGFSPLR [α-scoliidine], the “neuroprotective effect against oxidative stress-induced neurotoxicity” value with PC12 neuronal cells [3] was “only β-scoliidine showed a neuroprotective effect”. As for DYVTVKGFSPLREP [ε-scoliidine], the “Cleavage (%) NEP” value in the series with human neprilysin (NEP) is under 0.01%. For the same molecule, the cell viability result with PC12 cells (0.01 μmoL·L^−1, up to 6 h of treatment, 570 nm, three experiments in triplicate) is “enhanced cell viability”; in the series with PC12 cells (10 μmoL·L^−1, 24 h, 570 nm, three experiments in triplicate), “cell viability decreased”. The “concentration dependence of decrease in cell viability” value in the series on PC12 cells (570 nm) was “decrease in cell viability was dependent on the concentration”. Moreover, in series [4], the “Cleavage (%) ACE” value was under 0.01%.

For the molecule DYVTVKGFSPLRKA [β-scoliidine], the “Cleavage (%) NEP” value in the series with human neprilysin (NEP) is on record as under 0.01%. In addition, the “Cleavage (%) ACE” value in series [4] is under 0.01%.

Take PRLRRLTGLSPLR [α-campsomerin]: the “cell growth potentiating effect” value with neuronal PC12 cells is listed as “showed a cell growth potentiating effect”.

For the molecule PRLRRLTGLSPLRAP [β-campsomerin], the “cell growth potentiating effect” value with neuronal PC12 cells was “had no effect”. Take “RPPGFSPFR [bradykinin, reference compound]”: the “Cleavage (%) NEP” value in the series with human neprilysin (NEP) is recorded as 100%. The “Cleavage (%) ACE” value in series [4] is recorded as 100%.

In the case of RPPGFTPFR [Thr^6-bradykinin], in series [5], the “blocking action on ACh receptors” value was “showing a blocking action on ACh receptors”.

Turning to RPPGFTPFRKA [Megascoliakinin], in series [5], the “blocking action on ACh receptors” value is listed as “showing a blocking action on ACh receptors”. With YVTVKGFSPLR [γ-scoliidine], the “Cleavage (%) NEP” value in the series on human neprilysin (NEP) is under 0.01%. The cell viability result with PC12 cells (setting [6]) is “cell viability remained unchanged”. In addition, in series [4], the “Cleavage (%) ACE” value is listed as under 0.01%. Take YVTVKGFSPLREP [δ-scoliidine]: the “Cleavage (%) NEP” value in the series with human neprilysin (NEP) was under 0.01%. In addition, the cell viability entry in the series with PC12 cells (setting [6]) is “cell viability remained unchanged”. Besides, the “Cleavage (%) ACE” value in series [4] is under 0.01%.
